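Following 48 hours of exposure in 96-well plates, responses at five concentrations were used to interpolate endpoints linearly. Abbreviation: GI50, concentration required for 50% inhibition of growth. TGI: total growth inhibition.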
Columns and labels:
Assay in all cases: DTP human tumour cell line panel, 48 h
786-0 renal = system: 786-0 renal
A498 renal = system: A498 renal
A549 NSCLC = system: A549 NSCLC
ACHN renal = system: ACHN renal
BT-549 breast = system: BT-549 breast
CAKI-1 renal = system: CAKI-1 renal
CCRF-CEM leukemia = system: CCRF-CEM leukemia
COLO 205 colon = system: COLO 205 colon
DU-145 prostate = system: DU-145 prostate
EKVX NSCLC = system: EKVX NSCLC
HCC-2998 colon = system: HCC-2998 colon
HCT-116 colon = system: HCT-116 colon
HCT-15 colon = system: HCT-15 colon
HL-60(TB) leukemia = system: HL-60(TB) leukemia
HOP-62 NSCLC = system: HOP-62 NSCLC
HOP-92 NSCLC = system: HOP-92 NSCLC
HS 578T breast = system: HS 578T breast
HT29 colon = system: HT29 colon
IGROV1 ovarian = system: IGROV1 ovarian
K-562 leukemia = system: K-562 leukemia
KM12 colon = system: KM12 colon
LOX IMVI melanoma = system: LOX IMVI melanoma
M14 melanoma = system: M14 melanoma
MALME-3M melanoma = system: MALME-3M melanoma
MCF7 breast = system: MCF7 breast
MDA-MB-231 breast = system: MDA-MB-231 breast
MDA-MB-435 = system: MDA-MB-435
MOLT-4 leukemia = system: MOLT-4 leukemia
NCI-H226 lung = system: NCI-H226 lung
NCI-H23 lung = system: NCI-H23 lung
NCI-H460 lung = system: NCI-H460 lung
NCI-H522 lung = system: NCI-H522 lung
NCI/ADR-RES ovarian = system: NCI/ADR-RES ovarian
OVCAR-3 ovarian = system: OVCAR-3 ovarian
OVCAR-4 ovarian = system: OVCAR-4 ovarian
OVCAR-5 ovarian = system: OVCAR-5 ovarian
OVCAR-8 ovarian = system: OVCAR-8 ovarian
PC-3 prostate = system: PC-3 prostate
RPMI-8226 leukemia = system: RPMI-8226 leukemia
RXF 393 renal = system: RXF 393 renal
SF-268 CNS = system: SF-268 CNS
SF-295 CNS = system: SF-295 CNS
SF-539 CNS = system: SF-539 CNS
SK-MEL-2 melanoma = system: SK-MEL-2 melanoma
SK-MEL-28 melanoma = system: SK-MEL-28 melanoma
SK-MEL-5 melanoma = system: SK-MEL-5 melanoma
SK-OV-3 ovarian = system: SK-OV-3 ovarian
SN12C renal = system: SN12C renal
SNB-19 CNS = system: SNB-19 CNS
SR leukemia = system: SR leukemia
SW-620 colon = system: SW-620 colon
T-47D breast = system: T-47D breast
TK-10 renal = system: TK-10 renal
U251 CNS = system: U251 CNS
UACC-62 melanoma = system: UACC-62 melanoma
UO-31 renal = system: UO-31 renal

COc1ccccc1/C=C1\COc2ccc(O)c(O)c2C1=O
GI50 (786-0 renal): 2200 nM
TGI (786-0 renal): 6.72 µM
GI50 (A498 renal): 3.4 µM
TGI (A498 renal): 18 µM
GI50 (A549 NSCLC): 2950 nM
TGI (A549 NSCLC): > 100 µM
GI50 (ACHN renal): 1310 nM
TGI (ACHN renal): 2640 nM
GI50 (BT-549 breast): 2480 nM
TGI (BT-549 breast): 7.53 µM
GI50 (CAKI-1 renal): 1480 nM
TGI (CAKI-1 renal): 4.15 µM
GI50 (CCRF-CEM leukemia): 286 nM
TGI (CCRF-CEM leukemia): 2110 nM
GI50 (COLO 205 colon): 3.14 µM
TGI (COLO 205 colon): 8.98 µM
GI50 (DU-145 prostate): 2320 nM
TGI (DU-145 prostate): > 100 µM
GI50 (EKVX NSCLC): 3000 nM
TGI (EKVX NSCLC): 46.1 µM
GI50 (HCC-2998 colon): 1760 nM
TGI (HCC-2998 colon): 3.25 µM
GI50 (HCT-116 colon): 1610 nM
TGI (HCT-116 colon): 3.99 µM
GI50 (HCT-15 colon): 823 nM
TGI (HCT-15 colon): 4.54 µM
GI50 (HL-60(TB) leukemia): 407 nM
TGI (HL-60(TB) leukemia): 4.49 µM
GI50 (HOP-62 NSCLC): 3.1 µM
TGI (HOP-62 NSCLC): 9.54 µM
GI50 (HOP-92 NSCLC): 2980 nM
TGI (HOP-92 NSCLC): 20.8 µM
GI50 (HS 578T breast): 3.6 µM
TGI (HS 578T breast): > 100 µM
GI50 (HT29 colon): 2770 nM
TGI (HT29 colon): 7.78 µM
GI50 (IGROV1 ovarian): 1460 nM
TGI (IGROV1 ovarian): 4.21 µM
GI50 (K-562 leukemia): 671 nM
TGI (K-562 leukemia): 14.1 µM
GI50 (KM12 colon): 1730 nM
TGI (KM12 colon): 3.89 µM
GI50 (LOX IMVI melanoma): 1260 nM
TGI (LOX IMVI melanoma): 2660 nM
GI50 (M14 melanoma): 2190 nM
TGI (M14 melanoma): 8.38 µM
GI50 (MALME-3M melanoma): 1380 nM
TGI (MALME-3M melanoma): 3.72 µM
GI50 (MCF7 breast): 360 nM
TGI (MCF7 breast): > 100 µM
GI50 (MDA-MB-231 breast): 2240 nM
TGI (MDA-MB-231 breast): 10.2 µM
GI50 (MDA-MB-435): 1570 nM
TGI (MDA-MB-435): 4.96 µM
GI50 (MOLT-4 leukemia): 1790 nM
TGI (MOLT-4 leukemia): 19.1 µM
GI50 (NCI-H226 lung): 1900 nM
TGI (NCI-H226 lung): 5.08 µM
GI50 (NCI-H23 lung): 2040 nM
TGI (NCI-H23 lung): 6.11 µM
GI50 (NCI-H460 lung): 1830 nM
TGI (NCI-H460 lung): 4.09 µM
GI50 (NCI-H522 lung): 214 nM
TGI (NCI-H522 lung): 656 nM
GI50 (NCI/ADR-RES ovarian): 1880 nM
TGI (NCI/ADR-RES ovarian): 6.64 µM
GI50 (OVCAR-3 ovarian): 834 nM
TGI (OVCAR-3 ovarian): 6.68 µM
GI50 (OVCAR-4 ovarian): 1860 nM
TGI (OVCAR-4 ovarian): 9.55 µM
GI50 (OVCAR-5 ovarian): 2330 nM
TGI (OVCAR-5 ovarian): 5.48 µM
GI50 (OVCAR-8 ovarian): 2380 nM
TGI (OVCAR-8 ovarian): > 100 µM
GI50 (PC-3 prostate): 1430 nM
TGI (PC-3 prostate): 11.3 µM
GI50 (RPMI-8226 leukemia): 235 nM
TGI (RPMI-8226 leukemia): 693 nM
GI50 (RXF 393 renal): 1510 nM
TGI (RXF 393 renal): 2970 nM
GI50 (SF-268 CNS): 2220 nM
TGI (SF-268 CNS): 8.42 µM
GI50 (SF-295 CNS): 4.49 µM
TGI (SF-295 CNS): > 100 µM
GI50 (SF-539 CNS): 1520 nM
TGI (SF-539 CNS): 3.35 µM
GI50 (SK-MEL-2 melanoma): 2720 nM
TGI (SK-MEL-2 melanoma): 8.67 µM
GI50 (SK-MEL-28 melanoma): 1910 nM
TGI (SK-MEL-28 melanoma): 4.44 µM
GI50 (SK-MEL-5 melanoma): 1560 nM
TGI (SK-MEL-5 melanoma): 3.18 µM
GI50 (SK-OV-3 ovarian): 4.68 µM
TGI (SK-OV-3 ovarian): > 100 µM
GI50 (SN12C renal): 1480 nM
TGI (SN12C renal): 5.31 µM
GI50 (SNB-19 CNS): 2610 nM
TGI (SNB-19 CNS): 26.2 µM
GI50 (SR leukemia): 407 nM
TGI (SR leukemia): 11.9 µM
GI50 (SW-620 colon): 1480 nM
TGI (SW-620 colon): 4.2 µM
GI50 (T-47D breast): 2470 nM
TGI (T-47D breast): > 100 µM
GI50 (TK-10 renal): 3.08 µM
TGI (TK-10 renal): > 100 µM
GI50 (U251 CNS): 1570 nM
TGI (U251 CNS): 3.99 µM
GI50 (UACC-62 melanoma): 1590 nM
TGI (UACC-62 melanoma): 3.29 µM
GI50 (UO-31 renal): 1040 nM
TGI (UO-31 renal): 2240 nM
